In this assay the test system is ATM-deficient GM16666 fibroblasts. The assay can be described thus: Clonogenic assay, GM16666. The assay is classed as cell-based. Particulars: GM16666 cells versus ATM-reconstituted GM16667, 48 hours. Here is the method:
FIG. 6. […] (A) BRCA1-deficient HCC1937 and BRCA1-reconstituted HCC1937/BRCA1 cells were continuously exposed to ABT-888 in the presence or absence of 125 nM DNA-PKi and assayed for clonogenic survival. Inset, Western blots of cell lysates from HCC1937 and HCC1937/BRCA1. (B) Western blots of M059J and reconstituted M059J+DNA-PKcs lines showing the restoration of DNA-PK expression and the shRNA-mediated knockdown of BRCA1. (C) Clonogenic survival of shRNA transfected M059J/M059J+DNA-PKcs lines treated with ABT-888 for 72 hours. (D) Clonogenic survival of ATM-deficient GM16666 or ATM-reconstituted GM16667 fibroblasts. Cells were exposed to ABT-888 for 48 hours in the presence or absence of 250 nM DNA-PKi, washed, and allowed to form colonies. Inset, Western blots of lysates from GM16666 and GM16667 fibroblasts. […] Results are representative of 3 independent experiments.
Colony formation assays were performed on siRNA-transfected PEO1 and PEO4 cells 48 hours after the second transfection. Cells were trypsinized and plated at 750 cells/plate in triplicate 60-mm dishes containing medium A, allowed to grow 10-14 days, and stained with Coomassie Brilliant Blue. Colonies containing ≧50 cells were scored manually. […]

Here are results for one compound from US8729048B2, “Methods and materials for assessing responsiveness to PARP inhibitors and platinating agents” (Mayo Foundation for Medical Education and Research, priority 2011, dated 2014).

With `C[C@]1(c2nc3c(C(N)=O)cccc3[nH]2)CCCN1` [ABT-888], the clonogenic sensitivity entry is reported as “heightened sensitivity”.
